In patent publication US11136317B2, “NADPH oxidase 4 inhibitors” (ACTELION PHARMACEUTICALS LTD, priority 2015, dated 2021):

target: T1, human NOX4 (Homo sapiens, UniProt Q9NPH5); test: Amplex Red activity assay (cellular H2O2 formation in hNOX4 T-REx-293 cells); format: cell-based; details: tet-induced 24 h, extracellular H2O2 by Amplex Red, 60 min 25° C., geometric mean if determined several times
T1 construct: The full-length human NOX4 (NM_016931.3) transcript was cloned; expressed in transfected cells
T1 sequence (Q9NPH5 1-578): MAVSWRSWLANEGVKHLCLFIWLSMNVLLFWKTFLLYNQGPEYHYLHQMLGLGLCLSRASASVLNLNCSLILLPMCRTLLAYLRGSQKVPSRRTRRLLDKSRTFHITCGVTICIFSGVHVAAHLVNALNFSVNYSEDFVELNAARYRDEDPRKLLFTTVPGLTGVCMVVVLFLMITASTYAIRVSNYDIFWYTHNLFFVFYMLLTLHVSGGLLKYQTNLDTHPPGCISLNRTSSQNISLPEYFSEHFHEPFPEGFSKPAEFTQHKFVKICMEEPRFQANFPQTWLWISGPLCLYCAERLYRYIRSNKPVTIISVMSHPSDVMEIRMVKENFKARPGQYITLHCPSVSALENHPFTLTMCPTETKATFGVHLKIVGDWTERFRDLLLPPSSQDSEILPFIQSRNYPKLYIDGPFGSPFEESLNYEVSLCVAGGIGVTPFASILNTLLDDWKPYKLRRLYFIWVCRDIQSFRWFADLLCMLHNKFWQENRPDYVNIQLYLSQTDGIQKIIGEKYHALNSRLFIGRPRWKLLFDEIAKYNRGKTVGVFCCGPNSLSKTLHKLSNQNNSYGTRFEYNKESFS
T1 sequence (P13498 1-195 partner): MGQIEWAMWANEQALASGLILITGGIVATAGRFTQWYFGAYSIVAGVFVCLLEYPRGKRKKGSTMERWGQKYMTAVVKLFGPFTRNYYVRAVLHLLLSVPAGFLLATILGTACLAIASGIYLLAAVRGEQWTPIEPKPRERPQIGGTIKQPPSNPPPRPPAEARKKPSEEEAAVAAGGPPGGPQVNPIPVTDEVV
How it was run: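 Tet-induced (1 μg/mL, 24 h) HEK293 T-REx cells stably expressing full-length human NOX4, 20 000 cells/well, exposed to compounds (10 concentrations, 50 μM to 100 nM; 1.25% DMSO) for 60 min at 25°C. Extracellular H2O2 detected by Amplex Red resorufin fluorescence (ex 550/em 600 nm) versus vehicle; IC50 calculated.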

IC50 | Structure (SMILES)
1430 nM | O=C(Nc1ccc2oc(N3CCC(F)(F)CC3)nc2c1)c1ccc2c(c1)CCCO2 [Example 149, Chroman-6-carboxylic acid [2-(4,4-difluoro-piperidin-1-yl)-benzooxazol-5-yl]-amide]
2200 nM | O=C(Nc1ccc2oc(N3CCCC(F)(F)C3)nc2c1)c1ccc2c(c1)CCCO2 [Example 150, Chroman-6-carboxylic acid [2-(3,3-difluoro-piperidin-1-yl)-benzooxazol-5-yl]-amide]
1410 nM | O=C(Nc1ccc2oc(N3CCC(O)CC3)nc2c1)c1ccc2c(c1)CCCO2 [Example 151, Chroman-6-carboxylic acid [2-(4-hydroxy-piperidin-1-yl)-benzooxazol-5-yl]-amide]
1350 nM | COC1CCN(c2nc3cc(NC(=O)c4ccc5c(c4)CCCO5)ccc3o2)CC1 [Example 152, Chroman-6-carboxylic acid [2-(4-methoxy-piperidin-1-yl)-benzooxazol-5-yl]-amide]
1300 nM | O=C(Nc1ccc2oc(N3CCC4(CC3)COC4)nc2c1)c1ccc2c(c1)CCCO2 [Example 153, Chroman-6-carboxylic acid [2-(2-oxa-7-aza-spiro[3.5]non-7-yl)-benzooxazol-5-yl]-amide]
1130 nM | O=C(Nc1ccc2oc(N3CCCC4(COC4)C3)nc2c1)c1ccc2c(c1)CCCO2 [Example 154, Chroman-6-carboxylic acid [2-(2-oxa-6-aza-spiro[3.5]non-6-yl)-benzooxazol-5-yl]-amide]
756 nM | O=C(Nc1ccc2oc(N3CCOCC3)nc2c1)c1ccc2c(c1)CCCO2 [Example 155, Chroman-6-carboxylic acid (2-morpholin-4-yl-benzooxazol-5-yl)-amide]
1790 nM | CN1CCN(c2nc3cc(NC(=O)c4ccc5c(c4)CCCO5)ccc3o2)CC1 [Example 156, Chroman-6-carboxylic acid [2-(4-methyl-piperazin-1-yl)-benzooxazol-5-yl]-amide]
2030 nM | CCN(CC)c1nc2cc(NC(=O)c3ccc4c(c3)CCCO4)ccc2o1 [Example 157, Chroman-6-carboxylic acid (2-diethylamino-benzooxazol-5-yl)-amide]
2860 nM | O=C(Nc1ccc2oc(N(C3CC3)C3COC3)nc2c1)c1ccc2c(c1)CCCO2 [Example 158, Chroman-6-carboxylic acid [2-(cyclopropyl-oxetan-3-yl-amino)-benzooxazol-5-yl]-amide]
1480 nM | O=C(Nc1ccc2oc(N3CC(O)C3)nc2c1)c1ccc2c(c1)OCCO2 [Example 159, 2,3-Dihydro-benzo[1,4]dioxine-6-carboxylic acid [2-(3-hydroxy-azetidin-1-yl)-benzooxazol-5-yl]-amide]
541 nM | O=C(Nc1ccc2oc(N3CCC34COC4)nc2c1)c1ccc2c(c1)OCCO2 [Example 160, 2,3-Dihydro-benzo[1,4]dioxine-6-carboxylic acid [2-(6-oxa-1-aza-spiro[3.3]hept-1-yl)-benzooxazol-5-yl]-amide]
665 nM | O=C(Nc1ccc2oc(N3CCC34CCC4)nc2c1)c1ccc2c(c1)OCCO2 [Example 161, 2,3-Dihydro-benzo[1,4]dioxine-6-carboxylic acid [2-(1-aza-spiro[3.3]hept-1-yl)-benzooxazol-5-yl]-amide]
954 nM | O=C(Nc1ccc2oc(N3CCC34CCOC4)nc2c1)c1ccc2c(c1)OCCO2 (centres unmarked) [Example 162, 2,3-Dihydro-benzo[1,4]dioxine-6-carboxylic acid [2-(6-oxa-1-aza-spiro[3.4]oct-1-yl)-benzooxazol-5-yl]-amide]
1140 nM | O=C(Nc1ccc2oc(N3CCC34CCOCC4)nc2c1)c1ccc2c(c1)OCCO2 [Example 163, 2,3-Dihydro-benzo[1,4]dioxine-6-carboxylic acid [2-(7-oxa-1-aza-spiro[3.5]non-1-yl)-benzooxazol-5-yl]-amide]
1280 nM | O=C(Nc1ccc2oc(N3CCCC3)nc2c1)c1ccc2c(c1)OCCO2 [Example 164, 2,3-Dihydro-benzo[1,4]dioxine-6-carboxylic acid (2-pyrrolidin-1-yl-benzooxazol-5-yl)-amide]

IC50 | Structure (SMILES)
764 nM | O=C(Nc1ccc2oc(N3CCCC34COC4)nc2c1)c1ccc2c(c1)OCCO2 [Example 165, 2,3-Dihydro-benzo[1,4]dioxine-6-carboxylic acid [2-(2-oxa-5-aza-spiro[3.4]oct-5-yl)-benzooxazol-5-yl]-amide]
1500 nM | O=C(Nc1ccc2oc(N3CCCCC3)nc2c1)c1ccc2c(c1)OCCO2 [Example 166, 2,3-Dihydro-benzo[1,4]dioxine-6-carboxylic acid (2-piperidin-1-yl-benzooxazol-5-yl)-amide]
1220 nM | O=C(Nc1ccc2oc(N3CCC(O)CC3)nc2c1)c1ccc2c(c1)OCCO2 [Example 167, 2,3-Dihydro-benzo[1,4]dioxine-6-carboxylic acid [2-(4-hydroxy-piperidin-1-yl)-benzooxazol-5-yl]-amide]
1140 nM | O=C(Nc1ccc2oc(N3CCCC(F)(F)C3)nc2c1)c1ccc2c(c1)OCCO2 [Example 168, 2,3-Dihydro-benzo[1,4]dioxine-6-carboxylic acid [2-(3,3-difluoro-piperidin-1-yl)-benzooxazol-5-yl]-amide]
793 nM | COC1CCN(c2nc3cc(NC(=O)c4ccc5c(c4)OCCO5)ccc3o2)CC1 [Example 169, 2,3-Dihydro-benzo[1,4]dioxine-6-carboxylic acid [2-(4-methoxy-piperidin-1-yl)-benzooxazol-5-yl]-amide]
899 nM | O=C(Nc1ccc2oc(N3CCC(F)(F)CC3)nc2c1)c1ccc2c(c1)OCCO2 [Example 170, 2,3-Dihydro-benzo[1,4]dioxine-6-carboxylic acid [2-(4,4-difluoro-piperidin-1-yl)-benzooxazol-5-yl]-amide]
792 nM | O=C(Nc1ccc2oc(N3CCCC4(COC4)C3)nc2c1)c1ccc2c(c1)OCCO2 [Example 171, 2,3-Dihydro-benzo[1,4]dioxine-6-carboxylic acid [2-(2-oxa-6-aza-spiro[3.5]non-6-yl)-benzooxazol-5-yl]-amide]
8850 nM | O=C(Nc1ccc2oc(N3CCC4(CC3)COC4)nc2c1)c1ccc2c(c1)OCCO2 [Example 172, 2,3-Dihydro-benzo[1,4]dioxine-6-carboxylic acid [2-(2-oxa-7-aza-spiro[3.5]non-7-yl)-benzooxazol-5-yl]-amide]
1420 nM | O=C(Nc1ccc2oc(N3CCOCC3)nc2c1)c1ccc2c(c1)OCCO2 [Example 173, 2,3-Dihydro-benzo[1,4]dioxine-6-carboxylic acid (2-morpholin-4-yl-benzooxazol-5-yl)-amide]
1390 nM | CN1CCN(c2nc3cc(NC(=O)c4ccc5c(c4)OCCO5)ccc3o2)CC1 [Example 174, 2,3-Dihydro-benzo[1,4]dioxine-6-carboxylic acid [2-(4-methyl-piperazin-1-yl)-benzooxazol-5-yl]-amide]
1350 nM | CCN(CC)c1nc2cc(NC(=O)c3ccc4c(c3)OCCO4)ccc2o1 [Example 175, 2,3-Dihydro-benzo[1,4]dioxine-6-carboxylic acid (2-diethylamino-benzooxazol-5-yl)-amide]
2970 nM | O=C(Nc1ccc2oc(N(C3CC3)C3COC3)nc2c1)c1ccc2c(c1)OCCO2 [Example 176, 2,3-Dihydro-benzo[1,4]dioxine-6-carboxylic acid [2-(cyclopropyl-oxetan-3-yl-amino)-benzooxazol-5-yl]-amide]
6870 nM | CN1CCOc2ccc(C(=O)Nc3ccc4oc(N5CC(O)C5)nc4c3)cc21 [Example 177, 4-Methyl-3,4-dihydro-2H-benzo[1,4]oxazine-6-carboxylic acid [2-(3-hydroxy-azetidin-1-yl)-benzooxazol-5-yl]-amide]
21800 nM | CN1CCOc2ccc(C(=O)Nc3ccc4oc(N5CC(F)(F)C5)nc4c3)cc21 [Example 178, 4-Methyl-3,4-dihydro-2H-benzo[1,4]oxazine-6-carboxylic acid [2-(3,3-difluoro-azetidin-1-yl)-benzooxazol-5-yl]-amide]
1740 nM | CN1CCOc2ccc(C(=O)Nc3ccc4oc(N5CCC56CCC6)nc4c3)cc21 [Example 179, 4-Methyl-3,4-dihydro-2H-benzo[1,4]oxazine-6-carboxylic acid [2-(1-aza-spiro[3.3]hept-1-yl)-benzooxazol-5-yl]-amide]
1770 nM | CN1CCOc2ccc(C(=O)Nc3ccc4oc(N5CCC56COC6)nc4c3)cc21 [Example 180, 4-Methyl-3,4-dihydro-2H-benzo[1,4]oxazine-6-carboxylic acid [2-(6-oxa-1-aza-spiro[3.3]hept-1-yl)-benzooxazol-5-yl]-amide]
